Earlier results, collected in patent US20040018533A1, “Diagnosing predisposition to fat deposition and therapeutic methods for reducing fat deposition and treatment of associated conditions” (priority 2002, published 2004).

Target: P2X4 (Homo sapiens, UniProt Q99571)
Settings: Xenopus oocytes

Chain of P2X4 (Q99571 whole entry, species assumed): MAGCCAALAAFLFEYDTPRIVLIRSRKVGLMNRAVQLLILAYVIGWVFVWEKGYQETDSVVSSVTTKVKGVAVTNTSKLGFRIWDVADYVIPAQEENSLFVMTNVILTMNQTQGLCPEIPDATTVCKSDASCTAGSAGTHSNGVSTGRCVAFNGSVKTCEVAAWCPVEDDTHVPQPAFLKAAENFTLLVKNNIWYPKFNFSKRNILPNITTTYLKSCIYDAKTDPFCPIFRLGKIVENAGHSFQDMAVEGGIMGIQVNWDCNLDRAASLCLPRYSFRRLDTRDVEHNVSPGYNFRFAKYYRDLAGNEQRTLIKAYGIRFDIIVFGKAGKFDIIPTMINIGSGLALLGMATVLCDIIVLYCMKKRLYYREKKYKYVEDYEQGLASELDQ

- effect on P2X4 function: inhibits P2X4 function
SMILES: CCO [ethanol]
